Assay results taken from patent US8247211B2, “Glycopeptide antibiotics” (American Cyanamid Company, priority 2001, dated 2012).
Values after ≈ are worked out from the molar mass of the structure shown.

What was measured:
Assay in all cases: In vitro antibacterial evaluation: minimum inhibitory concentration (MIC), broth dilution method
Assay type in all cases: cell-based
Streptococcus sp. = test system: Streptococcus sp.
Method in brief: (§1)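 Inoculum: 5×10^5 CFU/mL. Range: 64-0.06 μg/mL. Medium: Muller-Hinton II […]; NCCLS M7-A2 broth dilution. Endpoint: lowest concentration inhibiting growth. Strains include methicillin-, penicillin- and/or vancomycin-resistant clinical isolates.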

Staphylococcus sp. = conditions: broth dilution, 18 hours at 35° C.
Method in brief: as §1

Escherichia coli = test system: Escherichia coli
Method in brief: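 MIC read as lowest drug level preventing visible growth. Organisms at 5×10^5 CFU/mL were exposed to a 64-0.06 μg/mL dilution series in Muller-Hinton II […] following NCCLS broth dilution standard M7-A2.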

Enterococcus sp. = test system: Enterococcus sp.
Method in brief: as §1

[1] = broth dilution, inoculum 5×10^5 CFU/mL, 18 hours at 35° C.

MIC Streptococcus agalactiae (GC 4564) (Streptococcus sp.; [1]): <0.06 µg/mL
MIC Streptococcus pneumoniae (ATCC 6301) (Streptococcus sp.; [1]): <0.06 µg/mL
MIC Streptococcus pneumoniae (GC 1894) (Streptococcus sp.; [1]): <0.06 µg/mL
MIC Streptococcus pneumoniae (GC 4565) (Streptococcus sp.; [1]): <0.06 µg/mL
MIC Streptococcus pyogenes (GC 4563) (Streptococcus sp.; [1]): 0.12 µg/mL (≈ 0.0808 µM)
MIC Streptococcus pneumoniae (ATCC 6301) (Streptococcus sp.; strain ATCC 6301): <0.06 µg/mL
MIC Streptococcus pneumoniae (GC 1894) (Streptococcus sp.; strain GC 1894): <0.06 µg/mL
MIC Streptococcus pyogenes (GC 4563) (Streptococcus sp.; strain GC 4563): 0.12 µg/mL (≈ 0.0808 µM)
MIC Streptococcus agalactiae (GC 4564) (Streptococcus sp.; strain GC 4564): <0.06 µg/mL
MIC Streptococcus pneumoniae (GC 4565) (Streptococcus sp.; strain GC 4565): <0.06 µg/mL
MIC Coagulase Negative Staphylococcus (GC 4547) (Staphylococcus sp.; 5×10^5 CFU/mL): 8 µg/mL (≈ 5.39 µM)
MIC Coagulase Negative Staphylococcus (GC 4548) (Staphylococcus sp.; 5×10^5 CFU/mL): 2 µg/mL (≈ 1.35 µM)
MIC Coagulase Negative Staphylococcus (GC 4549) (Staphylococcus sp.; 5×10^5 CFU/mL): 2 µg/mL (≈ 1.35 µM)
MIC Coagulase Negative Staphylococcus (GC 4551) (Staphylococcus sp.; 5×10^5 CFU/mL): 4 µg/mL (≈ 2.69 µM)
MIC Coagulase Negative Staphylococcus (GC 6257) (Staphylococcus sp.; 5×10^5 CFU/mL): 2 µg/mL (≈ 1.35 µM)
MIC Staphylococcus aureus (ATCC 29213) (Staphylococcus sp.; 5×10^5 CFU/mL): 4 µg/mL (≈ 2.69 µM)
MIC Staphylococcus aureus (GC 1131) (Staphylococcus sp.; 5×10^5 CFU/mL): 8 µg/mL (≈ 5.39 µM)
MIC Staphylococcus aureus (GC 3051) (Staphylococcus sp.; 5×10^5 CFU/mL): 4 µg/mL (≈ 2.69 µM)
MIC Staphylococcus aureus (GC 3053) (Staphylococcus sp.; 5×10^5 CFU/mL): 4 µg/mL (≈ 2.69 µM)
MIC Staphylococcus aureus (GC 4541) (Staphylococcus sp.; 5×10^5 CFU/mL): 4 µg/mL (≈ 2.69 µM)
MIC Staphylococcus aureus (GC 4542) (Staphylococcus sp.; 5×10^5 CFU/mL): 2 µg/mL (≈ 1.35 µM)
MIC Staphylococcus aureus (GC 4544) (Staphylococcus sp.; 5×10^5 CFU/mL): 8 µg/mL (≈ 5.39 µM)
MIC Staphylococcus aureus (GC 4545) (Staphylococcus sp.; 5×10^5 CFU/mL): 4 µg/mL (≈ 2.69 µM)
MIC Staphylococcus aureus-SMITH (GC 4543) (Staphylococcus sp.; 5×10^5 CFU/mL): 8 µg/mL (≈ 5.39 µM)
MIC Staphylococcus aureus (ATCC 29213) (Staphylococcus sp.; strain ATCC 29213): 4 µg/mL (≈ 2.69 µM)
MIC Staphylococcus aureus (GC 1131) (Staphylococcus sp.; strain GC 1131): 8 µg/mL (≈ 5.39 µM)
MIC Staphylococcus aureus (GC 3051) (Staphylococcus sp.; strain GC 3051): 4 µg/mL (≈ 2.69 µM)
MIC Staphylococcus aureus (GC 3053) (Staphylococcus sp.; strain GC 3053): 4 µg/mL (≈ 2.69 µM)
MIC Staphylococcus aureus (GC 4541) (Staphylococcus sp.; strain GC 4541): 4 µg/mL (≈ 2.69 µM)
MIC Staphylococcus aureus (GC 4542) (Staphylococcus sp.; strain GC 4542): 2 µg/mL (≈ 1.35 µM)
MIC Staphylococcus aureus (GC 4544) (Staphylococcus sp.; strain GC 4544): 8 µg/mL (≈ 5.39 µM)
MIC Staphylococcus aureus (GC 4545) (Staphylococcus sp.; strain GC 4545): 4 µg/mL (≈ 2.69 µM)
MIC Escherichia coli (ATCC 25922) (Escherichia coli; strain ATCC 25922): >64 µg/mL
MIC Escherichia coli (GC 4559) (Escherichia coli; strain GC 4559): >64 µg/mL
MIC Escherichi coli (GC 4560) (Escherichia coli; strain GC 4560): 2 µg/mL (≈ 1.35 µM)
MIC Enterococcus avium (GC 4558) (Enterococcus sp.; [1]): 4 µg/mL (≈ 2.69 µM)
MIC Enterococcus faecalis (ATCC 29212) (Enterococcus sp.; [1]): 8 µg/mL (≈ 5.39 µM)
MIC Enterococcus faecalis (GC 2242) (Enterococcus sp.; [1]): 4 µg/mL (≈ 2.69 µM)
MIC Enterococcus faecalis (GC 2691) (Enterococcus sp.; [1]): 4 µg/mL (≈ 2.69 µM)
MIC Enterococcus faecalis (GC 3059) (Enterococcus sp.; [1]): 8 µg/mL (≈ 5.39 µM)
MIC Enterococcus faecalis (GC 4552) (Enterococcus sp.; [1]): 8 µg/mL (≈ 5.39 µM)
MIC Enterococcus faecalis (GC 4553) (Enterococcus sp.; [1]): 4 µg/mL (≈ 2.69 µM)
MIC Enterococcus faecalis (GC 4554) (Enterococcus sp.; [1]): 4 µg/mL (≈ 2.69 µM)
MIC Enterococcus faecalis (GC 6189) (Enterococcus sp.; [1]): 2 µg/mL (≈ 1.35 µM)
MIC Enterococcus faecium (GC 2243) (Enterococcus sp.; [1]): 8 µg/mL (≈ 5.39 µM)
MIC Enterococcus faecium (GC 4556) (Enterococcus sp.; [1]): 8 µg/mL (≈ 5.39 µM)
MIC Enterococcus faecium (GC 4557) (Enterococcus sp.; [1]): 8 µg/mL (≈ 5.39 µM)
MIC Enterococcus faecalis (ATCC 29212) (Enterococcus sp.; strain ATCC 29212): 8 µg/mL (≈ 5.39 µM)
MIC Enterococcus faecalis (GC 2242) (Enterococcus sp.; strain GC 2242): 4 µg/mL (≈ 2.69 µM)
MIC Enterococcus faecium (GC 2243) (Enterococcus sp.; strain GC 2243): 8 µg/mL (≈ 5.39 µM)
MIC Enterococcus faecalis (GC 2691) (Enterococcus sp.; strain GC 2691): 4 µg/mL (≈ 2.69 µM)
MIC Enterococcus faecalis (GC 3059) (Enterococcus sp.; strain GC 3059): 8 µg/mL (≈ 5.39 µM)
MIC Enterococcus faecalis (GC 4552) (Enterococcus sp.; strain GC 4552): 8 µg/mL (≈ 5.39 µM)
MIC Enterococcus faecalis (GC 4553) (Enterococcus sp.; strain GC 4553): 4 µg/mL (≈ 2.69 µM)
MIC Enterococcus faecalis (GC 4554) (Enterococcus sp.; strain GC 4554): 4 µg/mL (≈ 2.69 µM)
MIC Enterococcus faecium (GC 4556) (Enterococcus sp.; strain GC 4556): 8 µg/mL (≈ 5.39 µM)
MIC Enterococcus faecium (GC 4557) (Enterococcus sp.; strain GC 4557): 8 µg/mL (≈ 5.39 µM)
MIC Enterococcus avium (GC 4558) (Enterococcus sp.; strain GC 4558): 4 µg/mL (≈ 2.69 µM)
MIC Enterococcus faecalis (GC 6189) (Enterococcus sp.; strain GC 6189): 2 µg/mL (≈ 1.35 µM)
SMILES: CC(c1ccccc1)C1NC(=O)CNC(=O)C(CO)NC(=O)C(C(O)C2CNC(=N)N2C2OC(CO)C(O)C(O)C2O)NC(=O)C(C(O)C2CNC(=N)N2)NC(=O)C(Cc2ccc(OC3OC(CO)C(OC4OC5COC(c6ccc(C=Cc7ccccc7)cc6)OC5C(O)C4O)C(O)C3O)cc2)NC1=O (stereo not drawn) [Example 172]
MIC Staphylococcus haemolyticus (GC 4546) (Staphylococcus sp.; 5×10^5 CFU/mL): 8 µg/mL (≈ 5.39 µM)
